ChEMBL document CHEMBL1145395, “De novo design of selective antibiotic peptides by incorporation of unnatural amino acids” (J Med Chem, 2007)
≈ marks a conversion by molar mass, not a printed value. Calls of active or inactive are those of the source. The calls are words filed in the database; no cut-off is given here. Non-standard residues stand in square brackets, D forms with d. Residues, ends and D or L forms follow the SMILES beside them. ξ: configuration not given here. Pro(3ξ,4ξ-(CH2)4) = O=C(O)[C@H]1NCC2CCCCC21; Oic = O=C(O)[C@@H]1C[C@@H]2CCCC[C@@H]2N1; Tic = O=C(O)[C@@H]1Cc2ccccc2CN1; Orn = NCCC[C@H](N)C(=O)O; GABA = NCCCC(=O)O

Assays:
Salmonella typhimurium = test: Antibacterial activity against Salmonella Typhimurium ATCC 13311; assay type: functional, Salmonella enterica subsp. enterica serovar Typhimurium; conditions: Salmonella enterica
Staphylococcus aureus = test: Antibacterial activity against methicillin/gentamicin/tetracycline resistant Staphylococcus aureus ATCC 33592; assay type: functional
Mycobacterium = test: Antibacterial activity against Mycobacterium ranae ATCC 110; assay type: functional
Bacillus subtilis = test: Antibacterial activity against Bacillus subtilis ATCC 43223; assay type: functional
Mus musculus [1] = test: Effect on wound healing in CD1 mouse skin at 100 ug applied topically after 3 days; assay type: functional
Mus musculus [2] = test: Effect on wound healing in CD1 mouse skin at 100 ug applied topically after 5 days; assay type: functional
Mus musculus [3] = test: Effect on wound healing in CD1 mouse skin at 100 ug applied topically after 7 days; assay type: functional
Mus musculus [4] = test: Effect on wound healing in CD1 mouse skin at 100 ug applied topically after 9 days; assay type: functional
Mus musculus [5] = test: Effect on wound healing in CD1 mouse skin at 100 ug applied topically after 11 days; assay type: functional
Mus musculus [6] = test: Effect on wound healing in CD1 mouse skin at 100 ug applied topically; assay type: functional
Mus musculus [7] = test: Acute toxicity in mouse at 1 mg/kg, ip after 6 days; assay type: organism-based; design: dose 1 mg/kg, route intraperitoneal; conditions: in vivo, 144 h
Mus musculus [8] = test: Acute toxicity in mouse at 5 mg/kg, ip after 6 days; assay type: organism-based; design: dose 5 mg/kg, route intraperitoneal; conditions: in vivo, 144 h
Mus musculus [9] = test: Acute toxicity in mouse at 25 mg/kg, ip after 6 days; assay type: organism-based; design: dose 25 mg/kg, route intraperitoneal; conditions: in vivo, 144 h
[10] = Toxicity to mouse RBC assessed as hemolytic activity at 100 uM; assay type: cell-based, Erythrocyte; conditions: red blood cells, read-out: Activity
[11] = Toxicity to mouse RBC assessed as hemolytic activity at 25 uM; assay type: cell-based, Erythrocyte; conditions: red blood cells, read-out: Activity

Row | SMILES | MIC (Salmonella typhimurium) [µM] | MIC (Staphylococcus aureus) [µM] | MIC (Mycobacterium) [µM] | MIC (Bacillus subtilis) [µM] | Activity (Mus musculus [1]) [%] | Activity (Mus musculus [2]) [%] | Activity (Mus musculus [3]) [%] | Activity (Mus musculus [4]) [%] | Activity (Mus musculus [5]) [%] | CT50 (Mus musculus [6]) [days] | Activity (Mus musculus [7]) | Activity (Mus musculus [8]) | Activity (Mus musculus [9]) | hemolysis at 100 µM [10] [%] | hemolysis at 25 µM [11] [%] | Activity (Staphylococcus aureus)
1 | CC(=O)NCCCC(=O)N[C@@H](Cc1ccccc1)C(=O)N1Cc2ccccc2C[C@H]1C(=O)N1[C@H](C(=O)NCCCC(=O)N[C@@H](CCCCN)C(=O)N2Cc3ccccc3C[C@H]2C(=O)N2[C@H](C(=O)NCCCC(=O)N[C@@H](Cc3ccccc3)C(=O)N3Cc4ccccc4C[C@H]3C(=O)N3[C@H](C(=O)NCCCC(=O)N[C@@H](CCCCN)C(=O)N4Cc5ccccc5C[C@H]4C(=O)N[C@@H](CCCCN)C(=O)N[C@@H](CCCCN)C(=O)N[C@@H](CCCCN)C(=O)N[C@@H](CCCCN)C(N)=O)C[C@@H]4CCCC[C@@H]43)C[C@@H]3CCCC[C@@H]32)C[C@@H]2CCCC[C@@H]21 (Ac-[GABA]F[Tic][Oic][GABA]K[Tic][Oic][GABA]F[Tic][Oic][GABA]K[Tic]KKKK-NH2) | 100 (≈ 255 µg/mL) | 10 (≈ 25.5 µg/mL) | 10 (≈ 25.5 µg/mL) | 1 (≈ 2.55 µg/mL) | 39.7 | 54.1 | 64.9 | 72.7 | 79 | 5.7 | – | – | – | – | – | –
2 | CC(C)C[C@H](NC(=O)[C@@H](N)CCCCN)C(=O)N1Cc2ccccc2C[C@H]1C(=O)N1CC2CCCCC2[C@H]1C(=O)NCC(=O)N[C@@H](CCCCN)C(=O)N1Cc2ccccc2C[C@H]1C(=O)N1CC2CCCCC2[C@H]1C(=O)NCC(=O)N[C@@H](Cc1ccccc1)C(=O)N1Cc2ccccc2C[C@H]1C(=O)N1CC2CCCCC2[C@H]1C(=O)NCC(=O)N[C@@H](CCCCN)C(=O)N1Cc2ccccc2C[C@H]1C(=O)N[C@@H](CCCCN)C(=O)N[C@@H](CCCCN)C(=O)N[C@@H](CCCCN)C(=O)N[C@@H](CCCCN)C(N)=O (stereo not given in full) (H-KL[Tic][Pro(3ξ,4ξ-(CH2)4)]GK[Tic][Pro(3ξ,4ξ-(CH2)4)]GF[Tic][Pro(3ξ,4ξ-(CH2)4)]GK[Tic]KKKK-NH2) | 3 (≈ 7.31 µg/mL) | 30 (≈ 73.1 µg/mL) | 3 (≈ 7.31 µg/mL) | 1 (≈ 2.44 µg/mL) | – | – | – | – | – | – | Non-toxic | Non-toxic | Non-toxic | 43.6 | 24.9 | –
3 | CC(=O)NCC(=O)N[C@@H](Cc1ccccc1)C(=O)N1Cc2ccccc2C[C@H]1C(=O)N1[C@H](C(=O)NCC(=O)N[C@@H](CCCCN)C(=O)N2Cc3ccccc3C[C@H]2C(=O)N2[C@H](C(=O)NCC(=O)N[C@@H](Cc3ccccc3)C(=O)N3Cc4ccccc4C[C@H]3C(=O)N3[C@H](C(=O)NCC(=O)N[C@@H](CCCCN)C(=O)N4Cc5ccccc5C[C@H]4C(=O)N[C@@H](CCCCN)C(=O)N[C@@H](CCCCN)C(=O)N[C@@H](CCCCN)C(=O)N[C@@H](CCCCN)C(N)=O)C[C@@H]4CCCC[C@@H]43)C[C@@H]3CCCC[C@@H]32)C[C@@H]2CCCC[C@@H]21 (Ac-GF[Tic][Oic]GK[Tic][Oic]GF[Tic][Oic]GK[Tic]KKKK-NH2) | 10 (≈ 24.4 µg/mL) | 3 (≈ 7.32 µg/mL) | 10 (≈ 24.4 µg/mL) | 1 (≈ 2.44 µg/mL) | 36.3 | 51.5 | 63.3 | 69.8 | 77.5 | 6.1 | – | – | – | – | – | –
4 | CC(=O)NCC(=O)N[C@@H](Cc1ccccc1)C(=O)N1Cc2ccccc2C[C@H]1C(=O)N1CC2CCCCC2[C@H]1C(=O)NCC(=O)N[C@@H](CCCN)C(=O)N1Cc2ccccc2C[C@H]1C(=O)N1CC2CCCCC2[C@H]1C(=O)NCC(=O)N[C@@H](Cc1ccccc1)C(=O)N1Cc2ccccc2C[C@H]1C(=O)N1CC2CCCCC2[C@H]1C(=O)NCC(=O)N[C@@H](CCCN)C(=O)N1Cc2ccccc2C[C@H]1C(=O)N[C@@H](CCCN)C(=O)N[C@@H](CCCN)C(=O)N[C@@H](CCCN)C(=O)N[C@@H](CCCN)C(N)=O (stereo not given in full) (Ac-GF[Tic][Pro(3ξ,4ξ-(CH2)4)]G[Orn][Tic][Pro(3ξ,4ξ-(CH2)4)]GF[Tic][Pro(3ξ,4ξ-(CH2)4)]G[Orn][Tic][Orn][Orn][Orn][Orn]-NH2) | 3 (≈ 7.07 µg/mL) | 3 (≈ 7.07 µg/mL) | 10 (≈ 23.6 µg/mL) | 0.3 (≈ 0.707 µg/mL) | 38.8 | 51.2 | 67.2 | 72.8 | 81.1 | 4.7 | – | – | – | – | – | –
5 | CC(=O)NCC(=O)N[C@@H](Cc1ccccc1)C(=O)N1Cc2ccccc2C[C@H]1C(=O)NCC(=O)NCC(=O)N[C@@H](CCCCN)C(=O)N1Cc2ccccc2C[C@H]1C(=O)NCC(=O)NCC(=O)N[C@@H](Cc1ccccc1)C(=O)N1Cc2ccccc2C[C@H]1C(=O)NCC(=O)NCC(=O)N[C@@H](CCCCN)C(=O)N1Cc2ccccc2C[C@H]1C(=O)N[C@@H](CCCCN)C(=O)N[C@@H](CCCCN)C(=O)N[C@@H](CCCCN)C(=O)N[C@@H](CCCCN)C(N)=O (Ac-GF[Tic]GGK[Tic]GGF[Tic]GGK[Tic]KKKK-NH2) | 100 (≈ 216 µg/mL) | – | 30 (≈ 64.8 µg/mL) | 10 (≈ 21.6 µg/mL) | – | – | – | – | – | – | – | – | – | 5.7 | 3.8 | inactive
